System: 935938-334-R-J1-PDC spheroids with HUVEC/MSC, viability
Assay: Anticancer human tumor 935938-334-R-J1-PDC patient-derived small intestine adenocarcinoma cell line growth inhibition [PI3K]
Details: for IC50: curve of first compound; for viability, T/C: stronger effect = lower value
Method in brief: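 Viability of mixed-cell spheroids was determined after exposure to pairwise combinations, one partner being inavolisib, alpelisib, duvelisib or copanlisib. Highest tested concentration matched clinical Cmax where known and 10 microM where not, descending in half-log steps.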

[1] = second compound 0.0316 µM, first compound 0.0316 µM
[2] = second compound 0.0316 µM, first compound 0.1 µM
[3] = second compound 0.1 µM, first compound 0.0316 µM
[4] = second compound 0.1 µM, first compound 0.1 µM
[5] = second compound 0.316 µM, first compound 0.0316 µM
[6] = second compound 0.316 µM, first compound 0.1 µM
[7] = second compound 1 µM, first compound 0.0316 µM
[8] = second compound 1 µM, first compound 0.1 µM
[9] = second compound 3.16 µM, first compound 0.0316 µM
[10] = second compound 3.16 µM, first compound 0.1 µM
[11] = second compound 10 µM, first compound 0.0316 µM
[12] = second compound 10 µM, first compound 0.1 µM
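Note: compound exposure lasted seven days before viability was read.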
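Throughout, for viability, T/C: percent of vehicle DMSO treated spheroid viability so 100% = untreated.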

Cn1ncc(Cl)c1-c1cc(C(=O)NC(CN)Cc2cccc(F)c2)sc1Cl (centres undefined) + Cc1nc(NC(=O)N2CCCC2C(N)=O)sc1-c1ccnc(C(C)(C)C(F)(F)F)c1
IC50 (second compound 0.0316 µM): 3010 nM | IC50 (second compound 0.1 µM): 743 nM | IC50 (second compound 0.316 µM): 776 nM | IC50 (second compound 1 µM): 266 nM | IC50 (second compound 3.16 µM): 144 nM | IC50 (second compound 10 µM): < 31.6 nM | viability, T/C [1]: 83.4% | viability, T/C [2]: 87.5% | viability, T/C (second compound 0.0316 µM, first compound 0.316 µM): 61.9% | viability, T/C (second compound 0.0316 µM, first compound 1 µM): 67.4% | viability, T/C (second compound 0.0316 µM, first compound 3.16 µM): 38.1% | viability, T/C (second compound 0.0316 µM, first compound 10 µM): 52.8% | viability, T/C [3]: 100% | viability, T/C [4]: 77.2% | viability, T/C (second compound 0.1 µM, first compound 0.316 µM): 60.4% | viability, T/C (second compound 0.1 µM, first compound 1 µM): 45.9% | viability, T/C (second compound 0.1 µM, first compound 3.16 µM): 37% | viability, T/C (second compound 0.1 µM, first compound 10 µM): 24.3% | viability, T/C [5]: 90.7% | viability, T/C [6]: 67.3% | viability, T/C (second compound 0.316 µM, first compound 0.316 µM): 60.6% | viability, T/C (second compound 0.316 µM, first compound 1 µM): 45.1% | viability, T/C (second compound 0.316 µM, first compound 3.16 µM): 43.3% | viability, T/C (second compound 0.316 µM, first compound 10 µM): 26.8% | viability, T/C [7]: 48.2% | viability, T/C [8]: 62.4% | viability, T/C (second compound 1 µM, first compound 0.316 µM): 42.6% | viability, T/C (second compound 1 µM, first compound 1 µM): 46.9% | viability, T/C (second compound 1 µM, first compound 3.16 µM): 35.7% | viability, T/C (second compound 1 µM, first compound 10 µM): 23.8% | viability, T/C [9]: 53.5% | viability, T/C [10]: 62.5% | viability, T/C (second compound 3.16 µM, first compound 0.316 µM): 34.4% | viability, T/C (second compound 3.16 µM, first compound 1 µM): 38% | viability, T/C (second compound 3.16 µM, first compound 3.16 µM): 27.1% | viability, T/C (second compound 3.16 µM, first compound 10 µM): 22.4% | viability, T/C [11]: 37.9% | viability, T/C [12]: 35.8% | viability, T/C (second compound 10 µM, first compound 0.316 µM): 39.2% | viability, T/C (second compound 10 µM, first compound 1 µM): 39% | viability, T/C (second compound 10 µM, first compound 3.16 µM): 28.1% | viability, T/C (second compound 10 µM, first compound 10 µM): 26.7%

Cn1ncnc1[C@H]1c2n[nH]c(=O)c3cc(F)cc(c23)N[C@@H]1c1ccc(F)cc1 + Cc1nc(NC(=O)N2CCCC2C(N)=O)sc1-c1ccnc(C(C)(C)C(F)(F)F)c1
IC50 (second compound 0.0316 µM): > 100 nM | IC50 (second compound 0.1 µM): > 100 nM | IC50 (second compound 0.316 µM): > 100 nM | IC50 (second compound 1 µM): > 100 nM | IC50 (second compound 3.16 µM): 16.1 nM | IC50 (second compound 10 µM): < 0.316 nM | viability, T/C (second compound 0.0316 µM, first compound 0.000316 µM): 83.6% | viability, T/C (second compound 0.0316 µM, first compound 0.001 µM): 95.8% | viability, T/C (second compound 0.0316 µM, first compound 0.00316 µM): 112% | viability, T/C (second compound 0.0316 µM, first compound 0.01 µM): 87.8% | viability, T/C [1]: 72.1% | viability, T/C [2]: 99% | viability, T/C (second compound 0.1 µM, first compound 0.000316 µM): 81% | viability, T/C (second compound 0.1 µM, first compound 0.001 µM): 98.7% | viability, T/C (second compound 0.1 µM, first compound 0.00316 µM): 99.9% | viability, T/C (second compound 0.1 µM, first compound 0.01 µM): 67.5% | viability, T/C [3]: 84.2% | viability, T/C [4]: 83.5% | viability, T/C (second compound 0.316 µM, first compound 0.000316 µM): 89.1% | viability, T/C (second compound 0.316 µM, first compound 0.001 µM): 67.3% | viability, T/C (second compound 0.316 µM, first compound 0.00316 µM): 78% | viability, T/C (second compound 0.316 µM, first compound 0.01 µM): 61.4% | viability, T/C [5]: 69.7% | viability, T/C [6]: 78.7% | viability, T/C (second compound 1 µM, first compound 0.000316 µM): 62.2% | viability, T/C (second compound 1 µM, first compound 0.001 µM): 70% | viability, T/C (second compound 1 µM, first compound 0.00316 µM): 67.2% | viability, T/C (second compound 1 µM, first compound 0.01 µM): 57.6% | viability, T/C [7]: 60% | viability, T/C [8]: 55.4% | viability, T/C (second compound 3.16 µM, first compound 0.000316 µM): 63.1% | viability, T/C (second compound 3.16 µM, first compound 0.001 µM): 53.7% | viability, T/C (second compound 3.16 µM, first compound 0.00316 µM): 46.6% | viability, T/C (second compound 3.16 µM, first compound 0.01 µM): 58.2% | viability, T/C [9]: 51.7% | viability, T/C [10]: 42% | viability, T/C (second compound 10 µM, first compound 0.000316 µM): 39% | viability, T/C (second compound 10 µM, first compound 0.001 µM): 38.7% | viability, T/C (second compound 10 µM, first compound 0.00316 µM): 43.8% | viability, T/C (second compound 10 µM, first compound 0.01 µM): 33% | viability, T/C [11]: 50.5% | viability, T/C [12]: 38.5%

Source: PubChem BioAssay AID1963966 (Molecular Pharmacology Branch, DTP, NCI, 2024)
